Results as given in US20240270751A1, “Pyrazolopyridinone Compounds” (BeiGene Ltd., priority 2021, published 2024).

What was measured:
DGKζ = DGKζ (Homo sapiens (Human), UniProt Q13574); assay: Biochemical DGK IC50 assay, DGKζ ADP-Glo assay; details: 0.5 nM enzyme, 140 μM ATP, 80 μM DAG; read-out: DGKζ ADP-Glo assay IC50
Summary of the method: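 Full-length human DGKζ, His-TEV tagged and purified from baculovirus-infected Sf9 cells, assayed by ADP-Glo with DAG/PS lipid micelle substrate prepared in 25 mM HEPES pH 7.0 with octyl glucoside. Final compound concentrations spanned 1.55–10000 nM or 23.3–150000 nM.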

DGKα = DGKα (Homo sapiens (Human), UniProt P23743); assay: Biochemical DGK IC50 assay, DGKα ADP-Glo assay; details: 7.5 nM enzyme, 140 μM ATP, 80 μM DAG
Summary of the method: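 ADP-Glo read-out with full-length DGKα on DAG/PS lipid micelle substrate in 25 mM HEPES pH 7.0, 0.5 mM EDTA, 160 mM octyl β-D-glucopyranoside. Compound final concentrations spanned 1.55˜10000 nM or 23.3˜150000 nM.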

DGKα, sequence (P23743 whole entry): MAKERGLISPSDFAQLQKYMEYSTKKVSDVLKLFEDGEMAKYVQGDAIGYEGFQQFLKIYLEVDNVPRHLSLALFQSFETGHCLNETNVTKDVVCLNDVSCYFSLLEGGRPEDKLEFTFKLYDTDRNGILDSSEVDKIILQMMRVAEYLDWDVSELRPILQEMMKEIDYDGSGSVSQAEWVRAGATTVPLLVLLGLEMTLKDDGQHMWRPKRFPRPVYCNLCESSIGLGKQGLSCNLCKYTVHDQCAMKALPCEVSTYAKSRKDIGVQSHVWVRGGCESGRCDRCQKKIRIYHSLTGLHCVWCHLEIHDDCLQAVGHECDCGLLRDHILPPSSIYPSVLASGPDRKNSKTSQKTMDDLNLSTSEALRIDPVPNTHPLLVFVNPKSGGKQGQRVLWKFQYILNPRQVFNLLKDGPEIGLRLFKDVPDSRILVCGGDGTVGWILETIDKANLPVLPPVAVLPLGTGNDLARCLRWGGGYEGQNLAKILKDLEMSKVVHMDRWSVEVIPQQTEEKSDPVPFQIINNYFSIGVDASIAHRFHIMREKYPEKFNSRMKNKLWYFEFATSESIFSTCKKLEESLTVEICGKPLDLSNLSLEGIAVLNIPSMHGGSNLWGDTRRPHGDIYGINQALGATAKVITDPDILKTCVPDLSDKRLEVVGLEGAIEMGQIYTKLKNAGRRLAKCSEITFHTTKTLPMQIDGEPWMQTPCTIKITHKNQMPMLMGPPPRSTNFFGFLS
DGKζ, sequence (Q13574 other isoform, or with tags, fused parts or gaps): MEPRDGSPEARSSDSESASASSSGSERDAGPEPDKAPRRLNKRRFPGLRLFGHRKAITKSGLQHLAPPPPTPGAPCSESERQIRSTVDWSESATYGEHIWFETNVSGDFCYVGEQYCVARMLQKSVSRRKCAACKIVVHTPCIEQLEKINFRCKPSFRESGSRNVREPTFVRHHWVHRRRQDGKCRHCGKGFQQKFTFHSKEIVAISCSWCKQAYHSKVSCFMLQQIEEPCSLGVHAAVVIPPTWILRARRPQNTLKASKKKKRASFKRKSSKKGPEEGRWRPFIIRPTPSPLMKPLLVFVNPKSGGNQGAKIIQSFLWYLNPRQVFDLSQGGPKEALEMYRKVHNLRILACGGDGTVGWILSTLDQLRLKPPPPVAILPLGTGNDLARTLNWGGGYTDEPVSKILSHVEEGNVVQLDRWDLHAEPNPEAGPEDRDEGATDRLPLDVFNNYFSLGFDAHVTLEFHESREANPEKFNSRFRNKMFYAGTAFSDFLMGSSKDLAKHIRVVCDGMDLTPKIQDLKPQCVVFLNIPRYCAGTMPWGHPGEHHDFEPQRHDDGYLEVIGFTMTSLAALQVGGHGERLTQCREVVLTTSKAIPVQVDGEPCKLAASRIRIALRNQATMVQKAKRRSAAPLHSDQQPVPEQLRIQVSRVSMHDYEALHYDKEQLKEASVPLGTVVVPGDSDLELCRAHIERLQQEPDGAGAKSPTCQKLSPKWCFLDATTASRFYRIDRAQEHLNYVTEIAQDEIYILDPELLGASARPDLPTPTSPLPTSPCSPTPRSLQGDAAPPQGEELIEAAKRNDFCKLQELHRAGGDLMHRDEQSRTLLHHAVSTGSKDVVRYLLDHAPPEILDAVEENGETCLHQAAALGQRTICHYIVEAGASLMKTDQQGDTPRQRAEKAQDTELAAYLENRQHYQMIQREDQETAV

SMILES	IC50 (DGKζ) [nM]	IC50 (DGKα) [nM]
CC(c1ccc2ncc(C3CC3)nc2c1)N1C[C@H](C)N(c2cc(=O)n(C)c3cn(CC#N)nc23)C[C@H]1C (stereo partly drawn) [Compound A310, 2-(7-((2S,5R)-4-(1-(3-cyclopropylquinoxalin-6-yl)ethyl)-2,5-dimethylpiperazin-1-yl)-4-methyl-5-oxo-4,5-dihydro-2H-pyrazolo[4,3-b]pyridin-2-yl)acetonitrile]	127	94700
CC(c1ccc2ncc(C(F)F)nc2c1)N1C[C@H](C)N(c2cc(=O)n(C)c3cn(CC#N)nc23)C[C@H]1C (stereo partly drawn) [Compound A311, 2-(7-((2S,5R)-4-(1-(3-(difluoromethyl)quinoxalin-6-yl)ethyl)-2,5-dimethylpiperazin-1-yl)-4-methyl-5-oxo-4,5-dihydro-2H-pyrazolo[4,3-b]pyridin-2-yl)acetonitrile]	41	6630
CC(c1ccc2ncc(C(C)(F)F)nc2c1)N1C[C@H](C)N(c2cc(=O)n(C)c3cn(CC#N)nc23)C[C@H]1C (stereo partly drawn) [Compound A312, 2-(7-((2S,5R)-4-(1-(3-(1,1-difluoroethyl)quinoxalin-6-yl)ethyl)-2,5-dimethylpiperazin-1-yl)-4-methyl-5-oxo-4,5-dihydro-2H-pyrazolo[4,3-b]pyridin-2-yl)acetonitrile]	238	66000
[2H]C([2H])([2H])c1cnc2ccc(C(C)N3C[C@H](C)N(c4cc(=O)n(C)c5cn(CC#N)nc45)C[C@H]3C)cc2n1 (stereo partly drawn) [Compound A313, 2-(7-((2S,5R)-2,5-dimethyl-4-(1-(3-(methyl-d3)quinoxalin-6-yl)ethyl)piperazin-1-yl)-4-methyl-5-oxo-4,5-dihydro-2H-pyrazolo[4,3-b]pyridin-2-yl)acetonitrile]	41	48000
CC(c1ccc2ncc(C(F)(F)F)nc2c1)N1C[C@H](C)N(c2cc(=O)n(C)c3cn(CC#N)nc23)C[C@H]1C (stereo partly drawn) [Compound A314, 2-(7-((2S,5R)-2,5-dimethyl-4-(1-(3-(trifluoromethyl)quinoxalin-6-yl)ethyl)piperazin-1-yl)-4-methyl-5-oxo-4,5-dihydro-2H-pyrazolo[4,3-b]pyridin-2-yl)acetonitrile]	689	84300
CC(c1ccc2nc(C(F)(F)F)cnc2c1)N1C[C@H](C)N(c2cc(=O)n(C)c3cn(CC#N)nc23)C[C@H]1C (stereo partly drawn) [Compound A315, 2-(7-((2S,5R)-2,5-dimethyl-4-(1-(2-(trifluoromethyl)quinoxalin-6-yl)ethyl)piperazin-1-yl)-4-methyl-5-oxo-4,5-dihydro-2H-pyrazolo[4,3-b]pyridin-2-yl)acetonitrile]	3590	61000
Cc1nc2cc(C(C)N3C[C@H](C)N(c4cc(=O)n(C)c5cn(CC#N)nc45)C[C@H]3C)ccc2nc1O (stereo partly drawn) [Compound A316, 2-(7-((2S,5R)-4-(1-(2-hydroxy-3-methylquinoxalin-6-yl)ethyl)-2,5-dimethylpiperazin-1-yl)-4-methyl-5-oxo-4,5-dihydro-2H-pyrazolo[4,3-b]pyridin-2-yl)acetonitrile]	> 10000	67000
Cc1cnc2ccc([C@H](C)N3C[C@H](C)N(c4c(F)c(=O)n(C)c5cn(CC#N)nc45)C[C@H]3C)cc2n1 [Compound A317, 2-(7-((2S,5R)-2,5-dimethyl-4-((S)-1-(3-methylquinoxalin-6-yl)ethyl)piperazin-1-yl)-6-fluoro-4-methyl-5-oxo-4,5-dihydro-2H-pyrazolo[4,3-b]pyridin-2-yl)acetonitrile]	21	8650
Cc1cnc2ccc([C@H](C)N3C[C@H](C)N(c4c(C#N)c(=O)n(C)c5cn(CC#N)nc45)C[C@H]3C)cc2n1 [Compound A318, 2-(cyanomethyl)-7-((2S,5R)-2,5-dimethyl-4-((S)-1-(3-methylquinoxalin-6-yl)ethyl)piperazin-1-yl)-4-methyl-5-oxo-4,5-dihydro-2H-pyrazolo[4,3-b]pyridine-6-carbonitrile]	15	6490
Cc1cnc2ccc([C@H](C)N3C[C@H](C)N(c4nc(=O)n(C)c5cn(CC#N)nc45)C[C@H]3C)cc2n1 [Compound A319, 2-(7-((2S,5R)-2,5-dimethyl-4-((S)-1-(3-methylquinoxalin-6-yl)ethyl)piperazin-1-yl)-4-methyl-5-oxo-4,5-dihydro-2H-pyrazolo[4,3-d]pyrimidin-2-yl)acetonitrile]	23	49800
Cc1nc2cc(C(C)N3C[C@H](C)N(c4cc(=O)n(C)c5cn(CC#N)nc45)C[C@H]3C)ccc2s1 (stereo partly drawn) [Compound A320]	159	11600
CC(c1ccc2c(c1)OC1(CC1)CO2)N1C[C@H](C)N(c2cc(=O)n(C)c3cn(CC#N)nc23)C[C@H]1C (stereo partly drawn) [Compound A323, 2-(7-((2S,5R)-4-(1-(3H-spiro[benzo[b][1,4]dioxine-2,1′-cyclopropan]-7-yl)ethyl)-2,5-dimethylpiperazin-1-yl)-4-methyl-5-oxo-4,5-dihydro-2H-pyrazolo[4,3-b]pyridin-2-yl)acetonitrile]	7	10700
CC(c1ccc2c(n1)OCCO2)N1C[C@H](C)N(c2cc(=O)n(C)c3cn(CC#N)nc23)C[C@H]1C (stereo partly drawn) [Compound A324, 2-(7-((2S,5R)-4-(1-(2,3-dihydro-[1,4]dioxino[2,3-b]pyridin-6-yl)ethyl)-2,5-dimethylpiperazin-1-yl)-4-methyl-5-oxo-4,5-dihydro-2H-pyrazolo[4,3-b]pyridin-2-yl)acetonitrile]	4020	> 150000
CC(c1ccc2c(n1)OC(C)(C)CO2)N1C[C@H](C)N(c2cc(=O)n(C)c3cn(CC#N)nc23)C[C@H]1C (stereo partly drawn) [Compound A325, 2-(7-((2S,5R)-4-(1-(3,3-dimethyl-2,3-dihydro-[1,4]dioxino[2,3-b]pyridin-6-yl)ethyl)-2,5-dimethylpiperazin-1-yl)-4-methyl-5-oxo-4,5-dihydro-2H-pyrazolo[4,3-b]pyridin-2-yl)acetonitrile]	89	103000
CC[C@H]1CN(C(C)c2ccc(F)cc2C(C)OC)[C@H](CC)CN1c1cc(=O)n(C)c2cn(CC#N)nc12 (stereo partly drawn) [Compound A327, 2-(7-((2S,5R)-2,5-diethyl-4-(1-(4-fluoro-2-(1-methoxyethyl)phenyl)ethyl)piperazin-1-yl)-4-methyl-5-oxo-4,5-dihydro-2H-pyrazolo[4,3-b]pyridin-2-yl)acetonitrile]	19	> 150000

The remaining lines, values ahead:

IC50 (DGKζ) [nM]	IC50 (DGKα) [nM]	SMILES
143	83000	CC(OC(F)F)c1cc(F)ccc1C(C)N1C[C@H](C)N(c2cc(=O)n(C)c3cn(CC#N)nc23)C[C@H]1C (stereo partly drawn) [Compound A328, 2-(7-((2S,5R)-4-(1-(2-(1-(difluoromethoxy)ethyl)-4-fluorophenyl)ethyl)-2,5-dimethylpiperazin-1-yl)-4-methyl-5-oxo-4,5-dihydro-2H-pyrazolo[4,3-b]pyridin-2-yl)acetonitrile]
91	> 150000	COC1(c2cc(F)ccc2C(C)N2C[C@H](C)N(c3cc(=O)n(C)c4cn(CC#N)nc34)C[C@H]2C)CC1 (stereo partly drawn) [Compound A329, 2-(7-((2S,5R)-4-(1-(4-fluoro-2-(1-methoxycyclopropyl)phenyl)ethyl)-2,5-dimethylpiperazin-1-yl)-4-methyl-5-oxo-4,5-dihydro-2H-pyrazolo[4,3-b]pyridin-2-yl)acetonitrile]
46	31800	CC(c1ccc2c(c1)C(F)(F)CCO2)N1C[C@H](C)N(c2cc(=O)n(C)c3cn(CC#N)nc23)C[C@H]1C (stereo partly drawn) [Compound A331, 2-(7-((2S,5R)-4-(1-(4,4-difluorochroman-6-yl)ethyl)-2,5-dimethylpiperazin-1-yl)-4-methyl-5-oxo-4,5-dihydro-2H-pyrazolo[4,3-b]pyridin-2-yl)acetonitrile]
169	123	CC[C@@H]1CN(c2cc(=O)n(C)c3cn(CC#N)nc23)[C@@H](C)CN1C(c1ccc(F)cc1)c1ccc(C(F)(F)F)cn1 (stereo partly drawn) [Compound A332, 2-(7-((2S,5R)-5-ethyl-4-((4-fluorophenyl)(5-(trifluoromethyl)pyridin-2-yl)methyl)-2-methylpiperazin-1-yl)-4-methyl-5-oxo-4,5-dihydro-2H-pyrazolo[4,3-b]pyridin-2-yl)acetonitrile]
210	10600	Cc1ccc(C(c2ccc(C)cc2)N2C[C@H](C)N(c3cc(=O)n(C)c4cn(CC#N)nc34)C[C@H]2C)cc1 [Compound A333]
142	610	CC#CCn1cc2c(n1)c(N1C[C@@H](C)N(C(C)c3ccc4ncc(C(F)F)nc4c3)C[C@@H]1C)cc(=O)n2C (stereo partly drawn) [Compound A335, 2-(but-2-yn-1-yl)-7-((2S,5R)-4-(1-(3-(difluoromethyl)quinoxalin-6-yl)ethyl)-2,5-dimethylpiperazin-1-yl)-4-methyl-2,4-dihydro-5H-pyrazolo[4,3-b]pyridin-5-one]
60	1570	CC#CCn1cc2c(n1)c(N1C[C@@H](C)N([C@@H](C)c3ccc4ncc(C)nc4c3)C[C@@H]1C)cc(=O)n2C [Compound A336]
283	203	CC[C@H]1CN(C(C)c2ccc3c(n2)OCC3)[C@H](CC)CN1c1cc(=O)n(C)c2cn(CC#N)nc12 (stereo partly drawn) [Compound A337, 2-(7-((2S,5R)-4-(1-(2,3-dihydrofuro[2,3-b]pyridin-6-yl)ethyl)-2,5-diethylpiperazin-1-yl)-4-methyl-5-oxo-4,5-dihydro-2H-pyrazolo[4,3-b]pyridin-2-yl)acetonitrile]
160	527	CC[C@H]1CN(C(C)c2ccc(C(C)(C)C#N)cc2)[C@H](CC)CN1c1cc(=O)n(C)c2cn(CC#N)nc12 (stereo partly drawn) [Compound A338]
